Source: ChEMBL document CHEMBL1201862, “PubChem BioAssay data set” (2004)
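Tested at 5 concentrations; 48 h exposure; 96-well plates; endpoints linearly interpolated, else capped at highest concentration. GI50 marks 50% less growth.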 Calls of active or inactive are those of the source. Rule as the data show it: active = GI50 up to about 1.1 µM and inactive = higher.

Columns and labels:
Assay in all cases: NCI tumour cell line growth inhibition, 48 h
[1] = system: HCT-116
[2] = system: K562
[3] = system: IGROV-1
[4] = system: 786-0
[5] = system: MDA-MB-231
[6] = system: A549
[7] = system: MOLT-4
[8] = system: SK-MEL-2
[9] = system: RPMI-8226
[10] = system: HCC 2998
[11] = system: CCRF-CEM
[12] = system: U-251
[13] = system: HCT-15
[14] = system: SK-MEL-28
[15] = system: SK-OV-3
[16] = system: M14
[17] = system: A498
[18] = system: Malme-3M
[19] = system: NCI-H522

| SMILES | GI50 [1] | GI50 [2] | GI50 [3] | GI50 [4] | GI50 [5] | GI50 [6] | GI50 [7] | GI50 [8] | GI50 [9] | GI50 [10] | GI50 [11] | GI50 [12] | GI50 [13] | GI50 [14] | GI50 [15] | GI50 [16] | GI50 [17] | GI50 [18] | GI50 [19] |
| --- | --- | --- | --- | --- | --- | --- | --- | --- | --- | --- | --- | --- | --- | --- | --- | --- | --- | --- | --- |
| CC1=CCC[C@H]2[C@](C)(CC3=CC(=O)C(SCC(C)C)=CC3=O)[C@@H](C)CC[C@]12C | 12 µM (inactive) | 5.78 µM (inactive) | 11 µM (inactive) | 14 µM (inactive) | 24.6 µM (inactive) | 12.5 µM (inactive) | 1.53 µM (inactive) | 15.9 µM (inactive) | 3.8 µM (inactive) | 16.3 µM (inactive) | 1.79 µM (inactive) | 14.3 µM (inactive) | 15.1 µM | 15.8 µM (inactive) | 19.5 µM (inactive) | 18.2 µM (inactive) | 18.8 µM (inactive) | – | – |
| O=C(O)[C@@H]1CCCC[C@@H]1C(=O)N(C1CCCCC1)C1CCCCC1 | > 100 µM (inactive) | > 100 µM (inactive) | > 100 µM (inactive) | > 100 µM (inactive) | – | > 100 µM (inactive) | > 100 µM (inactive) | > 100 µM (inactive) | > 100 µM (inactive) | > 100 µM (inactive) | > 100 µM (inactive) | > 100 µM (inactive) | > 100 µM | > 100 µM (inactive) | > 100 µM (inactive) | > 100 µM (inactive) | > 100 µM (inactive) | > 100 µM (inactive) | > 100 µM (inactive) |
| CC(=O)NC(CCCN(Cc1ccccc1)C(=O)N(CCCl)N=O)C(=O)NCc1ccccc1 (stereo unspecified) | 37.8 µM (inactive) | 68.4 µM (inactive) | 44.4 µM (inactive) | 2.24 µM (inactive) | – | 16.1 µM (inactive) | 9.4 µM (inactive) | > 66.5 µM (inactive) | > 70 µM (inactive) | 64.6 µM (inactive) | 23 µM (inactive) | 10.9 µM (inactive) | > 81.8 µM | 78.3 µM (inactive) | 55.6 µM (inactive) | 42.7 µM (inactive) | 32.7 µM (inactive) | > 53.1 µM (inactive) | 57.1 µM (inactive) |
| CCOc1ccc(/N=N/c2ccc(-c3ccc(/N=N/c4c(O)ccc5cc(S(=O)(=O)O)cc(S(=O)(=O)O)c45)cc3)cc2)cc1 | > 100 µM (inactive) | > 100 µM (inactive) | > 100 µM (inactive) | > 100 µM (inactive) | > 100 µM (inactive) | > 100 µM (inactive) | > 100 µM (inactive) | > 100 µM (inactive) | > 100 µM (inactive) | > 100 µM (inactive) | > 100 µM (inactive) | > 100 µM (inactive) | 86.5 µM | > 100 µM (inactive) | > 100 µM (inactive) | > 100 µM (inactive) | – | 18.5 µM (inactive) | 63.2 µM (inactive) |
